For this test, the system named is BDF1 mice, colon carcinoma 38 sc, T/C %. The experiment in a line: NCI In Vivo Anticancer Drug Screen. Data for tumor model Colon Carcinoma 38 (subcutaneous) in B6D2F1 (BDF1) mice. The conditions noted are these: endpoint: median tumor weight (est.), higher = larger tumour. The procedure, abridged:
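Compound antitumor activity was assessed in mice carrying transplantable tumors. Survival or tumor size was recorded, and each value is the treated-group measurement divided by that of the vehicle-treated control group.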

Where [1] appears, read: dose: 25.0 mg/kg/injection, schedule: Q07DX002 (ip), vehicle: saline.
The mark [2] stands for this setting: dose: 50.0 mg/kg/injection, schedule: Q07DX002 (ip), vehicle: saline.
Setting [3] is: dose: 25.0 mg/kg/injection, schedule: Q07DX002 (ip), vehicle: saline with Tween-80.
Where [4] appears, read: dose: 50.0 mg/kg/injection, schedule: Q07DX002 (ip), vehicle: saline with Tween-80.
[5] abbreviates: dose: 100.0 mg/kg/injection, schedule: Q07DX002 (ip), vehicle: saline with Tween-80.
[6] abbreviates: dose: 200.0 mg/kg/injection, schedule: Q07DX002 (ip), vehicle: saline with Tween-80.
Setting [7] is: dose: 3.12 mg/kg/injection, schedule: Q07DX002 (ip), vehicle: saline.
The mark [8] stands for this setting: dose: 6.25 mg/kg/injection, schedule: Q07DX002 (ip), vehicle: saline.
Setting [9] is: dose: 12.5 mg/kg/injection, schedule: Q07DX002 (ip), vehicle: saline with Tween-80.
The mark [10] stands for this setting: dose: 400.0 mg/kg/injection, schedule: Q07DX002 (ip), vehicle: saline with Tween-80.
[11] abbreviates: dose: 25.0 mg/kg/injection, schedule: Q07DX002 (ip), vehicle: Klucel (hydroxypropylcellulose) (HPC).
The mark [12] stands for this setting: dose: 100.0 mg/kg/injection, schedule: Q07DX002 (ip), vehicle: Klucel (hydroxypropylcellulose) (HPC).

“And” between values parts separate entries of the source, which are not always exact repeats. Equal values may be shown once. Records with an inconclusive call do not appear.

Regarding `Nc1ncnc2c1ncn2C1OC(CO)CC1O` (configuration not stated), the T/C runs as follows: (dose: 75.0 mg/kg/injection, schedule: Q07DX002 (ip), vehicle: Klucel (hydroxypropylcellulose) (HPC)) 110 % of control; (dose: 150.0 mg/kg/injection, schedule: Q07DX002 (ip), vehicle: Klucel (hydroxypropylcellulose) (HPC)) 88 % of control; (dose: 300.0 mg/kg/injection, schedule: Q07DX002 (ip), vehicle: Klucel (hydroxypropylcellulose) (HPC)) 54 % of control.

`CCc1ncnc2cc(OCC3CO3)c(OC)cc12` (configuration not stated): the T/C is 93 % of control under setting [1] and 47 % of control under setting [2].

Consider `NCC1CCC(C(=O)O)CC1` (configuration not stated), for which the T/C by setting is: under setting [3], 83 % of control; under setting [4], 104 % of control; under setting [5], 99 % of control; under setting [6], 102 % of control.

In the case of `C=CC(=O)N1CN(C(=O)C=C)CN(C(=O)C=C)C1`, the T/C by setting is: (dose: 1.56 mg/kg/injection, schedule: Q07DX002 (ip), vehicle: saline with Tween-80) 82 % of control; (dose: 1.56 mg/kg/injection, schedule: Q07DX002 (ip), vehicle: saline) 74 % of control; (dose: 3.12 mg/kg/injection, schedule: Q07DX002 (ip), vehicle: saline with Tween-80) 85 % of control; under setting [7], 110 % of control; (dose: 6.25 mg/kg/injection, schedule: Q07DX002 (ip), vehicle: saline with Tween-80) 104 % of control; under setting [8], 90 % of control. For the same molecule, under setting [9], the T/C is 120 % of control.

Regarding `CSCS(=O)C[C@H](CO)NC(=O)/C=C/c1c(C)[nH]c(=O)[nH]c1=O` (some centres not stated), the T/C (dose: 0.25 mg/kg/injection, schedule: Q07DX002 (ip), vehicle: saline) is 110 % of control and 86 % of control; the T/C (dose: 2.0 mg/kg/injection, schedule: Q07DX002 (ip), vehicle: saline) was 105 % of control; the T/C (dose: 4.0 mg/kg/injection, schedule: Q07DX002 (ip), vehicle: saline) was 62 % of control and 74 % of control.

Turning to `O=C(Nc1nncs1)c1ccncc1`, the T/C under setting [9] is 93 % of control and 98 % of control; the T/C under setting [4] was 91 % of control and 96 % of control; the T/C under setting [5] was 102 % of control; the T/C under setting [6] was 81 % of control; the T/C under setting [10] was 69 % of control and 93 % of control.

On to `NCCc1ccc(O)c(O)c1`, for which the T/C by setting is: (dose: 112.5 mg/kg/injection, schedule: Q07DX002 (ip), vehicle: Klucel (hydroxypropylcellulose) (HPC)) 122 % of control; (dose: 225.0 mg/kg/injection, schedule: Q07DX002 (ip), vehicle: Klucel (hydroxypropylcellulose) (HPC)) 109 % of control and 87 % of control; (dose: 450.0 mg/kg/injection, schedule: Q07DX002 (ip), vehicle: Klucel (hydroxypropylcellulose) (HPC)) 113 % of control and 103 % of control; (dose: 900.0 mg/kg/injection, schedule: Q07DX002 (ip), vehicle: Klucel (hydroxypropylcellulose) (HPC)) 95 % of control and 97 % of control.

`O=C(O)CC(=O)O.[NH-]C1CCCCC1[NH-].[Pt+2]` (configuration not stated): the T/C is, setting by setting: (dose: 12.5 mg/kg/injection, schedule: Q07DX002 (ip), vehicle: dextrose) 84 % of control; (dose: 20.0 mg/kg/injection, schedule: Q07DX003 (ip), vehicle: dextrose) 120 % of control; (dose: 25.0 mg/kg/injection, schedule: Q07DX002 (ip), vehicle: dextrose) 55 % of control and 64 % of control; (dose: 40.0 mg/kg/injection, schedule: Q07DX003 (ip), vehicle: dextrose) 48 % of control; (dose: 50.0 mg/kg/injection, schedule: Q07DX002 (ip), vehicle: dextrose) 12 % of control and 35 % of control; (dose: 80.0 mg/kg/injection, schedule: Q07DX003 (ip), vehicle: dextrose) 9 % of control.

Take `CCOC(=O)C(CC(C)C)NC(=O)C(Cc1ccc(N(CCCl)CCCl)cc1)NC(C)=O` (configuration not stated): the T/C is, setting by setting: (dose: 32.0 mg/kg/injection, schedule: Q07DX002 (ip), vehicle: saline with Tween-80) 53 % of control; (dose: 32.0 mg/kg/injection, schedule: Q07DX003 (ip), vehicle: saline with Tween-80) 76 % of control; (dose: 64.0 mg/kg/injection, schedule: Q07DX002 (ip), vehicle: saline with Tween-80) 36 % of control; (dose: 64.0 mg/kg/injection, schedule: Q07DX003 (ip), vehicle: saline with Tween-80) 66 % of control; (dose: 128.0 mg/kg/injection, schedule: Q07DX003 (ip), vehicle: saline with Tween-80) 82 % of control.

For `C=C/C(C)=C/[C@H](C)C(=O)C[C@H](O)CC1CC(=O)NC(=O)C1`, the T/C reads like this: under setting [9], 111 % of control; under setting [3], 102 % of control; under setting [4], 89 % of control; under setting [5], 102 % of control.

For `CN(C)N=Nc1ccccc1`, the T/C (dose: 12.5 mg/kg/injection, schedule: Q07DX002 (ip), vehicle: Klucel (hydroxypropylcellulose) (HPC)) is 80 % of control and 86 % of control; the T/C under setting [11] was 42 % of control and 49 % of control; the T/C under setting [12] was 24 % of control and 27 % of control.

In the case of `CN(N=O)C(N)=O`, the T/C under setting [7] was 95 % of control; the T/C (dose: 6.0 mg/kg/injection, schedule: Q07DX002 (ip), vehicle: saline) was 93 % of control; the T/C under setting [8] was 99 % of control; the T/C (dose: 6.25 mg/kg/injection, schedule: Q07DX002 (ip), vehicle: suspension in saline) is 108 % of control; the T/C (dose: 12.0 mg/kg/injection, schedule: Q07DX002 (ip), vehicle: saline) is 112 % of control; the T/C (dose: 12.5 mg/kg/injection, schedule: Q07DX002 (ip), vehicle: saline) is 78 % of control. Also, the T/C is, setting by setting: (dose: 12.5 mg/kg/injection, schedule: Q07DX002 (ip), vehicle: suspension in saline) 76 % of control; under setting [1], 43 % of control and 62 % of control; (dose: 25.0 mg/kg/injection, schedule: Q07DX002 (ip), vehicle: suspension in saline) 55 % of control; under setting [2], 37 % of control; (dose: 50.0 mg/kg/injection, schedule: Q07DX002 (ip), vehicle: suspension in saline) 82 % of control; (dose: 100.0 mg/kg/injection, schedule: Q07DX002 (ip), vehicle: suspension in saline) 84 % of control.

Regarding `CC(=S)NC(O)C(=O)c1ccccc1` (configuration not stated), the T/C is, setting by setting: under setting [4], 71 % of control and 82 % of control; under setting [5], 77 % of control and 99 % of control; under setting [6], 98 % of control and 103 % of control; under setting [10], 115 % of control.

Consider `CCN(CC)C(C)(C)C(=O)/C=C/c1ccccc1`, for which the T/C is 68 % of control (dose: 31.25 mg/kg/injection, schedule: Q07DX002 (ip), vehicle: saline with Tween-80); 39 % of control (dose: 62.5 mg/kg/injection, schedule: Q07DX002 (ip), vehicle: saline with Tween-80); 78 % of control (dose: 125.0 mg/kg/injection, schedule: Q07DX002 (ip), vehicle: saline with Tween-80); 34 % of control (dose: 250.0 mg/kg/injection, schedule: Q07DX002 (ip), vehicle: saline with Tween-80).

With `Cc1ccc(C2NC(=O)c3ccccc3N2)s1` (configuration not stated), the T/C is 99 % of control under setting [11]; 92 % of control (dose: 50.0 mg/kg/injection, schedule: Q07DX002 (ip), vehicle: Klucel (hydroxypropylcellulose) (HPC)); 103 % of control under setting [12]; 92 % of control (dose: 200.0 mg/kg/injection, schedule: Q07DX002 (ip), vehicle: Klucel (hydroxypropylcellulose) (HPC)); 84 % of control (dose: 400.0 mg/kg/injection, schedule: Q07DX002 (ip), vehicle: Klucel (hydroxypropylcellulose) (HPC)); 90 % of control (dose: 800.0 mg/kg/injection, schedule: Q07DX002 (ip), vehicle: Klucel (hydroxypropylcellulose) (HPC)).

As to `COP12(OCCO1)SC(C(F)(F)F)=C(C(F)(F)F)S2`, the T/C was 81 % of control (dose: 0.75 mg/kg/injection, schedule: Q07DX002 (ip), vehicle: saline with Tween-80); 92 % of control (dose: 1.5 mg/kg/injection, schedule: Q07DX002 (ip), vehicle: saline with Tween-80); 84 % of control (dose: 3.0 mg/kg/injection, schedule: Q07DX002 (ip), vehicle: saline with Tween-80); 83 % of control (dose: 6.0 mg/kg/injection, schedule: Q07DX002 (ip), vehicle: saline with Tween-80); 75 % of control (dose: 12.0 mg/kg/injection, schedule: Q07DX002 (ip), vehicle: saline with Tween-80).

These data come from PubChem BioAssay AID212 (DTP/NCI, 2004).
